Experiment [1] deals with T1, PLpro of SARS-CoV-2 (Severe acute respiratory syndrome coronavirus 2, UniProt P0DTD1). Nature of the experiment: Enzyme activity test in vitro: inhibition of PLpro at fixed concentration 50 μM (RLRGG-AMC substrate). It is filed as biochemical. The note with it: compound 50 μM, 10 min preincubation at 37° C., Table 1; read-out: Inhibition rate at 50 μM (%).
In experiment [2] the target is T1, PLpro of SARS-CoV-2. Nature of the experiment: IC50 determination of inhibition of PLpro activity (RLRGG-AMC substrate). The note with it: 13 concentrations 100 μM to 0.0244 μM, GraphPad Prism. The experiment is classed as biochemical.

Broadly, the inhibition is the percentage by which the read-out fell short of the control. A word on the IC50: it is the point on the concentration scale where inhibition reaches its midpoint. The low end stands for greater potency in that assay, the high end for weaker potency in that assay. For the compound `CSc1ccc(-c2nc3cnccn3c2Nc2ccc(C(N)=O)cc2)cc1` [P19462, 4-[[2-(4-methyl-sulfanylphenyl)imidazo [1,2-a]pyrazin-3-yl]amino]benzamide], the inhibition at 50 µM at PLpro of SARS-CoV-2 [1] came out at 65%. The compound also had a half-inhibitory concentration (IC50) at PLpro of SARS-CoV-2 [2] of 26 µM.

Take `O=C(O)c1ccc(Nc2c(-c3ccc(Cl)cc3)nc3cnccn23)cc1` [P18224, 4-[[2-(4-chlorophenyl)imidazo[1,2-a]pyrazin-3-yl]amino] benzoic acid]: the inhibition at 50 µM at PLpro of SARS-CoV-2 [1] is 54.6%. 38.3 µM corresponded to half-maximal inhibition against PLpro of SARS-CoV-2 [2] (IC50).

Turning to `COC(=O)c1cccc(Nc2c(-c3ccc(N4CCOCC4)cc3)nc3cnccn23)c1` [P141, methyl 3-[[2-(4-morpholin-4-ylphenyl)imidazo [1,2-a]pyrazin-3-yl]amino]benzoate], the inhibition at 50 µM at PLpro of SARS-CoV-2 [1] came to 63.8%. Moreover, inhibition against PLpro of SARS-CoV-2 [2] was half-maximal at 38.1 µM (IC50).

Take `O=C(NC1CCCCC1)c1cccc(Nc2c(-c3ccc(Cl)cc3)nc3cnccn23)c1` [P22438, 3-[[2-(4-chlorophenyl)imidazo[1,2-a]pyrazin-3-yl]amino]-N-cyclohexyl-benzamide]: the inhibition at 50 µM on PLpro of SARS-CoV-2 [1] was 54.2%. This compound yielded an IC50 against PLpro of SARS-CoV-2 [2] of 40.8 µM.

Regarding `COC(=O)c1cccc(Nc2c(-c3cccc(Cl)c3)nc3cnccn23)c1` [P19456, methyl 3-[[2-(3-chlorophenyl)imidazo[1,2-a]pyrazin-3-yl]amino] benzoate], the inhibition at 50 µM at PLpro of SARS-CoV-2 [1] came out at 47.8%. Besides, the 50% inhibitory concentration (IC50) on PLpro of SARS-CoV-2 [2] amounted to 60.9 µM.

As to `CSc1ccc(-c2nc3cnccn3c2Nc2cccc(C(=O)NCc3ccco3)c2)cc1` [P22479], at PLpro of SARS-CoV-2 [1], the inhibition at 50 µM stood at 58.8%. On PLpro of SARS-CoV-2 [2], this compound gave an IC50 of 35.4 µM.

For `COc1ccc(Nc2c(-c3ccc(OC)c(OC)c3)nc3cnccn23)cc1OC` [P19453, N,2-bis(3,4-dimethoxy-phenyl)imidazo [1,2-a]pyrazin-3-amine], the inhibition at 50 µM on PLpro of SARS-CoV-2 [1] was 65.5%. The same compound came in with a half-inhibitory concentration (IC50) at PLpro of SARS-CoV-2 [2] of 6.45 µM.

Regarding `COc1ccc(-c2nc3cnccn3c2Nc2cccc(C(N)=O)c2)cc1` [P22475, 3-[[2-(4-methoxy-phenyl)imidazo[1,2-a]pyrazin-3-yl]amino] benzamide], the inhibition at 50 µM on PLpro of SARS-CoV-2 [1] is 60.1%. The same compound gave an IC50 on PLpro of SARS-CoV-2 [2] of 16.6 µM.

For `COc1ccc(-c2nc3cnccn3c2Nc2ccc(C(=O)NC3CCCCC3)cc2)cc1` [P22414, N-cyclohexyl-4-[[2-(4-methoxyphenyl)imidazo[1,2-a]pyrazin-3-yl]amino]benzamide], at PLpro of SARS-CoV-2 [1], the inhibition at 50 µM is 51.1%. At PLpro of SARS-CoV-2 [2], this compound yielded an IC50 of 45.9 µM.

Consider `Cc1ccc(-c2nc3cnccn3c2Nc2ccc(C(=O)NCCN3CCOCC3)cc2)cc1` [P22423, 4-[[2-(4-methylphenyl)imidazo[1,2-a]pyrazin-3-yl]amino]-N-(2-morpholin-4-ylethyl)benzamide], for which the inhibition at 50 µM at PLpro of SARS-CoV-2 [1] came out at 54.5%. This compound also gave an IC50 against PLpro of SARS-CoV-2 [2] of 33.5 µM.

Consider `CCNC(=O)c1ccc(Nc2c(-c3ccc(OC)cc3)nc3cnccn23)cc1` [P22471, Nethyl-4-[[2-(4-methoxyphenyl)imidazo[1,2-a]pyrazin-3-yl]amino]benzamide], for which the inhibition at 50 µM at PLpro of SARS-CoV-2 [1] stood at 52.8%. The IC50 against PLpro of SARS-CoV-2 [2] was found to be 35.1 µM.

Regarding `COc1ccc(-c2nc3cnccn3c2Nc2ccc(C(=O)NCc3ccco3)cc2)cc1` [P22445, N-(furan-2-ylmethyl)-4-[[2-(4-methoxy-phenyl)imidazo[1,2-a]pyrazin-3-yl]amino]benzamide], the inhibition at 50 µM at PLpro of SARS-CoV-2 [1] was determined as 62.3%. Further, the half-maximal inhibitory concentration (IC50) at PLpro of SARS-CoV-2 [2] is 13.9 µM.

Turning to `COC(=O)c1cccc(Nc2c(-c3ccc(N(C)C)cc3)nc3cnccn23)c1` [P19446, methyl 3-[[2-[4-(dimethyl-amino)phenyl]imidazo [1,2-a]pyrazin-3-yl]amino]benzoate], the inhibition at 50 µM on PLpro of SARS-CoV-2 [1] stood at 65.8%. The compound further showed a 50% inhibitory concentration (IC50) on PLpro of SARS-CoV-2 [2] of 30.3 µM.

Take `CSc1ccc(-c2nc3cnccn3c2Nc2ccc(C(=O)O)cc2)cc1` [P19445, 4-[[2-(4-methyl-sulfanylphenyl)imidazo [1,2-a]pyrazin-3-yl]amino]benzoic acid]: the inhibition at 50 µM at PLpro of SARS-CoV-2 [1] is 50.2%. The half-inhibitory concentration (IC50) on PLpro of SARS-CoV-2 [2] is 47.6 µM.

With `COc1ccc(-c2nc3cnccn3c2Nc2ccc(C(N)=O)cc2)cc1` [P19442, 4-[[2-(4-methoxyphenyl)imidazo[1,2-a]pyrazin-3-yl]amino] benzamide], at PLpro of SARS-CoV-2 [1], the inhibition at 50 µM is 61.1%. On PLpro of SARS-CoV-2 [2], this compound displayed a half-maximal inhibitory concentration (IC50) of 43.2 µM.

These data come from patent US20250032485A1, “APPLICATION OF IMIDAZO [1,2-A] PYRAZINE COMPOUNDS OR THEIR PHARMACEUTICALLY ACCEPTABLE SALTS IN THE PREPARATION OF ANTI-CORONAVIRUS DRUGS” (GUANGZHOU MEDICAL UNIVERSITY, priority 2023, published 2025).
